The values below come from article PMC4894402, “Characterization of the honeybee AmNaV1 channel and tools to assess the toxicity of insecticides” (Scientific Reports, 2015).

For orientation: EC50 means the concentration needed to bring the measured effect to its halfway point.

For the assay, the target named is T1, AmNaV1 (Apis mellifera NaV1 voltage-gated sodium channel) (Apis mellifera, UniProt C9D7C5).
T1 construct: gene PARA; AmNaV1 channel expressed in Xenopus oocytes; with TipE regulatory subunit (honeybee)
Kind of assay: two-microelectrode voltage-clamp in Xenopus oocytes, tail current dose-response. It is filed as cell-based.

T1 sequence (C9D7C5 1-2044): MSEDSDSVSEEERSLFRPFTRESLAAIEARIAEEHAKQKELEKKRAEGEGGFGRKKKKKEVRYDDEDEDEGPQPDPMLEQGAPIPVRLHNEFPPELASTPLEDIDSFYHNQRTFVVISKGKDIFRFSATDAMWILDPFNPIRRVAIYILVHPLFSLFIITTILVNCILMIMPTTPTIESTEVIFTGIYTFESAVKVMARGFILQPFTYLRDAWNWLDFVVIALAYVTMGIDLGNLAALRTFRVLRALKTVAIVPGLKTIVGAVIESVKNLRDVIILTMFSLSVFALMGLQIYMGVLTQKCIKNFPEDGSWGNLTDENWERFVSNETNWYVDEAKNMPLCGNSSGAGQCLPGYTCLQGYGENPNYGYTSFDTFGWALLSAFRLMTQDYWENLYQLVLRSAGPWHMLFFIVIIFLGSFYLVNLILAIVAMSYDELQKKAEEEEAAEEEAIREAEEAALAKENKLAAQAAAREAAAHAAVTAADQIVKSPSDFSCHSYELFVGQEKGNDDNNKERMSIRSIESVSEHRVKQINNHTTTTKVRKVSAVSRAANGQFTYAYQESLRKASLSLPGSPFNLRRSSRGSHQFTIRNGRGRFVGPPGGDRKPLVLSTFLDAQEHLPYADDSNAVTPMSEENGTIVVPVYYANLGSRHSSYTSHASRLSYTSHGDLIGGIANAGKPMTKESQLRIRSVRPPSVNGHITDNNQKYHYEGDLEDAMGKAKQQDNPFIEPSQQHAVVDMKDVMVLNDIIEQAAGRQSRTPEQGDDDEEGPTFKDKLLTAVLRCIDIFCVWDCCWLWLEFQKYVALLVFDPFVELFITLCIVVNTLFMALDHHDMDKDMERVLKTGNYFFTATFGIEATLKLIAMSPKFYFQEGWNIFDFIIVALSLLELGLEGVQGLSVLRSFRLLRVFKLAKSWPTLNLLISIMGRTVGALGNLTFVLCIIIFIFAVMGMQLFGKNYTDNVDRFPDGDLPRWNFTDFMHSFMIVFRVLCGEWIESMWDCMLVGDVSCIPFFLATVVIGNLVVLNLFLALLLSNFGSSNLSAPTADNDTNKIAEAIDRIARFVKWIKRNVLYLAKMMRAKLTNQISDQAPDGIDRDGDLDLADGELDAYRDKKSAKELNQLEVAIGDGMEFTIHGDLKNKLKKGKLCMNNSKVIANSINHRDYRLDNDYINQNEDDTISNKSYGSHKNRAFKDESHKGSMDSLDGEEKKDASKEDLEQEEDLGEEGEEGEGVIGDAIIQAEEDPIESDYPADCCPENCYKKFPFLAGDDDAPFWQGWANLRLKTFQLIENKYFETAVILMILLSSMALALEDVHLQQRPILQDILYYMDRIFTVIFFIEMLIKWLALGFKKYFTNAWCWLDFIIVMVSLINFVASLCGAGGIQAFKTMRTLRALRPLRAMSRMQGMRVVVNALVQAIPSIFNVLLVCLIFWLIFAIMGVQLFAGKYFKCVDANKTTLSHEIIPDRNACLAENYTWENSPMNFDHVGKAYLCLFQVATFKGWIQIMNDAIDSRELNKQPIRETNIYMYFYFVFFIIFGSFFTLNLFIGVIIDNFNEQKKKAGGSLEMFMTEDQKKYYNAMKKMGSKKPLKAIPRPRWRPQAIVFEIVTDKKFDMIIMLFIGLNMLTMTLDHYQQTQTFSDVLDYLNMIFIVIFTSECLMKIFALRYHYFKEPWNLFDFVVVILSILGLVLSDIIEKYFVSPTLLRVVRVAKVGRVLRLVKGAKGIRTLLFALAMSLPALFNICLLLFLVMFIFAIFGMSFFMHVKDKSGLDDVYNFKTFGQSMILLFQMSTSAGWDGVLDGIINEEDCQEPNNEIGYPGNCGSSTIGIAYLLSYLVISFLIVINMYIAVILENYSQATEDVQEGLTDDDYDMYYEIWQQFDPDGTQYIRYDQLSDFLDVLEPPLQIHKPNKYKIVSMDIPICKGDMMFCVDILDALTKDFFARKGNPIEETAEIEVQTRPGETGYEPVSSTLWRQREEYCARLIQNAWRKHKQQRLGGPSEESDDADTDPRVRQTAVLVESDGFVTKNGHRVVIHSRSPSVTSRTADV
T1 sequence (A0A120HXK1 1-238 partner): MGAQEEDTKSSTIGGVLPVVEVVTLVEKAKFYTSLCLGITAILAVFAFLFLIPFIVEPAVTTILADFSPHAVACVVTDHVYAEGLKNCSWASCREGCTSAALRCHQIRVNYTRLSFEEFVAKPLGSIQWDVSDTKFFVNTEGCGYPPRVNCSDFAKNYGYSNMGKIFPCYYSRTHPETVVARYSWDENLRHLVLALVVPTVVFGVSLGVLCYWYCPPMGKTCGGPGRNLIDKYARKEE

`CC(C)C(C(=O)OC(C#N)c1cccc(Oc2ccccc2)c1)c1ccc(Cl)cc1` (stereo not shown) [fenvalerate]: it took 0.29 µM to reach a half-maximal effect (EC50). This lies in the sub-micromolar range.
